Drawing on patent US20220324835A1 (Nurix Therapeutics, Inc., priority 2018, published 2022), this text covers fold induction and IC50 for nine compounds.

The term IC50 denotes the midpoint of a concentration-inhibition curve.

The structures appear in SMILES notation. A value given as a limit tells only on which side of the number the result lay.

Experiment [1] relates to T-cell. Briefly: CD25 cell surface staining on T-cells co-stimulated with anti-CD3 and anti-CD28 antibody (Biological Example 2). The class given is cell-based, human. The settings on record: Homo sapiens, T-cell; for fold induction at 4 µM: 4 μM Cbl-b inhibitor. The method in brief:
(§1)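 T-cells were stimulated with anti-CD3 antibody alone or with anti-CD28 antibody, in the presence or absence of Cbl-b inhibitor. IL-2 secretion or CD25 surface staining was measured, and values expressed as fold over the uninhibited baseline […].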

Experiment [2] deals with T-cell. Briefly: IL-2 secretion from T-cells stimulated with anti-CD3 antibody alone (Biological Example 2). The format is cell-based, human. To be noted: T-cell, read-out: IL-2 secretion Anti-CD3 stimulation; for fold induction at 1 µM: 1 μM Cbl-b inhibitor; for fold induction at 8 µM: 8 μM Cbl-b inhibitor.
In another experiment the target is Cbl-b (Homo sapiens, UniProt Q13191). Briefly: Cbl-b inhibition assay (Cbl-b activity assay, FRET, Biological Example 1; 100 mM NaCl, 60 nM Src kinase). The class given is biochemical. The settings on record: upper bound stated in text lists; read-out: IC50 values in the Cbl-b inhibition assay of Biological Example 1. Summed up: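 Steps: Src kinase phosphorylates N-terminal biotinylated Avi-tagged Cbl-b; phosphorylated Cbl-b binds Bodipy-fluorescein ubiquitin-loaded UbcH5B; streptavidin-terbium on Cbl-b sits close to the fluorescein label, producing FRET. Inhibitors block UbcH5B-Ub binding.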
Chain of Cbl-b (Q13191 36-427): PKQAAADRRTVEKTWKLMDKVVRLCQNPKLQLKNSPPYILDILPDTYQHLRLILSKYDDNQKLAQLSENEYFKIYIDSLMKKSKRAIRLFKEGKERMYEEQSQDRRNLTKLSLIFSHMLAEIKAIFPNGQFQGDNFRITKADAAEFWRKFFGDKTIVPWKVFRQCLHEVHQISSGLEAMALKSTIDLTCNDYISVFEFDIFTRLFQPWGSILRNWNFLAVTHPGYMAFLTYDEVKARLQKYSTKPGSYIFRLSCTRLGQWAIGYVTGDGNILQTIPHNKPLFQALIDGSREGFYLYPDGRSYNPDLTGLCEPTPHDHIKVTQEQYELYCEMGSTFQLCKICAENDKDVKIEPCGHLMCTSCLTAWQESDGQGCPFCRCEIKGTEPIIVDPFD

The subject of experiment [3] is T-cell. Briefly: CD25 cell surface staining on T-cells stimulated with anti-CD3 antibody alone (Biological Example 2). The settings on record: T-cell, read-out: CD25 staining Anti-CD3 stimulation; for fold induction at 1 µM: 1 μM Cbl-b inhibitor; for fold induction at 8 µM: 8 μM Cbl-b inhibitor. The format is cell-based, human.
The test system of experiment [4] is T-cell. Briefly: IL-2 secretion from T-cells co-stimulated with anti-CD3 and anti-CD28 antibody (Biological Example 2). The class given is cell-based, human. To be noted: Homo sapiens, T-cell; for fold induction at 4 µM: 4 μM Cbl-b inhibitor. The method in brief: as §1
The mark [5] stands for this setting: fold change over baseline, 0.3 μM Cbl-b inhibitor, primary human total T-cells, read-out: CD25 staining Anti-CD3/Anti-CD28 stimulation.
The mark [6] stands for this setting: fold change over baseline, 1 μM Cbl-b inhibitor, primary human total T-cells, read-out: CD25 staining Anti-CD3/Anti-CD28 stimulation.
Setting [7] is: fold change over baseline, primary human total T-cells, read-out: CD25 staining Anti-CD3/Anti-CD28 stimulation.
The mark [8] stands for this setting: fold change over baseline, primary human total T-cells.
Setting [9] is: fold change over baseline, 0.3 μM Cbl-b inhibitor, primary human total T-cells, read-out: IL-2 secretion Anti-CD3/Anti-CD28 stimulation.
The mark [10] stands for this setting: fold change over baseline, 1 μM Cbl-b inhibitor, primary human total T-cells, read-out: IL-2 secretion Anti-CD3/Anti-CD28 stimulation.
Where [11] appears, read: fold change over baseline, primary human total T-cells, read-out: IL-2 secretion Anti-CD3/Anti-CD28 stimulation.
The mark [12] stands for this setting: Homo sapiens, fold change over baseline (anti-CD3/anti-CD28 stimulated T-cells without inhibitor).

Take `C[C@H](Cc1nncn1C)c1cccc(NC(=O)c2cc(O[C@@H]3CC[C@@H](O)C3)ccn2)c1` (relative stereo) [Compound 205, trans-4-(3-hydroxycyclopentyloxy)-N-(3-((R)-1-(4-methyl-4H-1,2,4-triazol-3-yl)propan-2-yl)phenyl)picolinamide]: the fold induction at 0.3 µM with T-cell [1] (setting [5]) lay in the range of 1.01 to 1.3; in the experiment on T-cell [4] (setting [9]) it was 2.51 to 5. The fold induction at 1 µM was 1.01 to 1.3 in the experiment with T-cell [1] (setting [6]), 0.051 to 0.1 in the experiment on T-cell [2] (setting [8]), 0.801 to 1 with T-cell [3] (setting [8]) and 2.51 to 5 with T-cell [4] (setting [10]). Also, the fold induction at 4 µM in the experiment on T-cell [1] (setting [7]) lay within 1.31 to 1.5; in the experiment with T-cell [4] (setting [11]), 5 to 7.5. The figures for the fold induction at 8 µM in the experiment with T-cell [2] (setting [8]) and in the experiment with T-cell [3] (setting [8]) were 0.101 to 0.15 and > 1, respectively. Also, the IC50 on Cbl-b was ≤ 100 nM.
On to `C[C@H](c1cc2c(c(C(F)(F)F)c1)CN(c1cccc(C3([C@H](F)c4nncn4C)COC3)c1)C2=O)N1CCC2(CC2)C1` (stereo in doubt) [Example 575, 6-((R)-1-(5-Azaspiro[2.4]heptan-5-yl)ethyl)-2-(3-(3-((S)-fluoro(4-methyl-4H-1,2,4-triazol-3-yl)methyl)oxetan-3-yl)phenyl)-4-(trifluoromethyl)isoindolin-1-one], for which the fold induction at 0.3 µM was 1.31 to 1.5 in the experiment on T-cell [1] (0.3 μM Cbl-b inhibitor, fold change over baseline (anti-CD3/anti-CD28 stimulated T-cells without inhibitor), read-out: CD25 staining Anti-CD3/Anti-CD28 stimulation) and > 7.5 in the experiment with T-cell [4] (0.3 μM Cbl-b inhibitor, fold change over baseline (anti-CD3/anti-CD28 stimulated T-cells without inhibitor), read-out: IL-2 secretion Anti-CD3/Anti-CD28 stimulation). For the same compound, the fold induction at 1 µM in the experiment with T-cell [1] (1 μM Cbl-b inhibitor, fold change over baseline (anti-CD3/anti-CD28 stimulated T-cells without inhibitor), read-out: CD25 staining Anti-CD3/Anti-CD28 stimulation) is 1.31 to 1.5; with T-cell [2] (setting [12]), > 0.201; in the experiment on T-cell [3] (setting [12]), > 1; in the experiment with T-cell [4] (1 μM Cbl-b inhibitor, fold change over baseline (anti-CD3/anti-CD28 stimulated T-cells without inhibitor), read-out: IL-2 secretion Anti-CD3/Anti-CD28 stimulation), > 7.5. The IC50 on Cbl-b was ≤ 100 nM.
Consider `Cc1ccc(C(=O)Nc2cccc([C@H](C)Sc3nncn3C)c2)nc1C1CC1` [Compound 54, (S)-6-cyclopropyl-5-methyl-N-(3-(1-((4-methyl-4H-1,2,4-triazol-3-yl)thio)ethyl)phenyl)picolinamide], for which the figures for the fold induction at 0.3 µM in the experiment on T-cell [1] (setting [5]) and in the experiment with T-cell [4] (setting [9]) were 1.01 to 1.3 and 1.01 to 2.5, respectively. For the same compound, the fold induction at 1 µM in the experiment with T-cell [1] (setting [6]) is 1.01 to 1.3; with T-cell [2] (setting [8]), < 0.05; in the experiment with T-cell [3] (setting [8]), 0.601 to 0.8; with T-cell [4] (setting [10]) it was 2.51 to 5. For the same compound, the values for the fold induction at 4 µM with T-cell [1] (setting [7]) and in the experiment on T-cell [4] (setting [11]) were 1.01 to 1.3 and > 7.5, respectively. In addition, the results for the fold induction at 8 µM in the experiment with T-cell [2] (setting [8]) and in the experiment on T-cell [3] (setting [8]) were 0.151 to 0.2 and 0.801 to 1, respectively. Further, the IC50 at Cbl-b is ≤ 100 nM.
As to `Cc1cc(C(=O)Nc2cccc([C@H](C)Sc3nncn3C)c2)nc(C(F)(F)F)c1` [Compound 65, (S)-4-methyl-N-(3-(1-((4-methyl-4H-1,2,4-triazol-3-yl)thio)ethyl)phenyl)-6-(trifluoromethyl)picolinamide], the values for the fold induction at 0.3 µM in the experiment with T-cell [1] (setting [5]) and in the experiment with T-cell [4] (setting [9]) were 1.01 to 1.3 and 1.01 to 2.5, respectively. Further, the fold induction at 1 µM was 1.01 to 1.3 in the experiment on T-cell [1] (setting [6]), < 0.05 in the experiment with T-cell [2] (setting [8]), 0.601 to 0.8 with T-cell [3] (setting [8]) and 1.01 to 2.5 in the experiment on T-cell [4] (setting [10]). For the same compound, the fold induction at 4 µM was 1.01 to 1.3 in the experiment on T-cell [1] (setting [7]) and 2.51 to 5 in the experiment on T-cell [4] (setting [11]). The fold induction at 8 µM with T-cell [2] (setting [8]) was 0.101 to 0.15; with T-cell [3] (setting [8]) it was > 1. In addition, the IC50 at Cbl-b was ≤ 100 nM.
As for `C[C@H](Sc1nncn1C)c1cccc(NC(=O)c2cc(C3CC3)cc(C(F)(F)F)n2)c1` [Compound 67, (S)-4-cyclopropyl-N-(3-(1-((4-methyl-4H-1,2,4-triazol-3-yl)thio)ethyl)phenyl)-6-(trifluoromethyl)picolinamide], the results for the fold induction at 0.3 µM with T-cell [1] (setting [5]) and in the experiment on T-cell [4] (setting [9]) were 1.01 to 1.3 and 1.01 to 2.5, respectively. For the same compound, the fold induction at 1 µM in the experiment on T-cell [1] (setting [6]) is 1.01 to 1.3; with T-cell [2] (setting [8]), < 0.05; in the experiment on T-cell [3] (setting [8]) it was 0.801 to 1; in the experiment with T-cell [4] (setting [10]), 1.01 to 2.5. Moreover, the fold induction at 4 µM in the experiment with T-cell [1] (setting [7]) lay in the range of 1.01 to 1.3; in the experiment on T-cell [4] (setting [11]), 2.51 to 5. The fold induction at 8 µM is 0.101 to 0.15 in the experiment on T-cell [2] (setting [8]) and > 1 with T-cell [3] (setting [8]). For the same compound, at Cbl-b, the IC50 was ≤ 100 nM.
`C[C@H](Sc1nncn1C)c1cccc(NC(=O)c2cccc(C3CC3)n2)c1` [Compound 72, (S)-6-cyclopropyl-N-(3-(1-((4-methyl-4H-1,2,4-triazol-3-yl)thio)ethyl)phenyl)picolinamide]: the fold induction at 0.3 µM in the experiment on T-cell [1] (setting [5]) was in the range of 1.31 to 1.5; in the experiment with T-cell [4] (setting [9]) it was 1.01 to 2.5. Further, the fold induction at 1 µM is 1.51 to 1.75 with T-cell [1] (setting [6]), 0.051 to 0.1 in the experiment on T-cell [2] (setting [8]), < 0.6 in the experiment with T-cell [3] (setting [8]) and 2.51 to 5 with T-cell [4] (setting [10]). Also, the fold induction at 4 µM in the experiment with T-cell [1] (setting [7]) lay within 1.51 to 1.75; in the experiment on T-cell [4] (setting [11]), 2.51 to 5. For the same compound, the fold induction at 8 µM is 0.151 to 0.2 in the experiment on T-cell [2] (setting [8]) and 0.801 to 1 in the experiment on T-cell [3] (setting [8]). The IC50 at Cbl-b is ≤ 100 nM.
As to `C[C@H](Sc1nncn1C)c1cccc(NC(=O)c2ccnc(C3CC3)n2)c1` [Compound 76, 2-cyclopropyl-A-[3-[(1S)-1-[(4-methyl-1,2,4-triazol-3-yl)sulfanyl]ethyl]phenyl]pyrimidine-4-carboxamide], the fold induction at 0.3 µM is 1.01 to 1.3 in the experiment with T-cell [1] (setting [5]) and < 1 in the experiment on T-cell [4] (setting [9]). Moreover, the fold induction at 1 µM is 1.01 to 1.3 in the experiment on T-cell [1] (setting [6]), < 0.05 in the experiment on T-cell [2] (setting [8]), 0.601 to 0.8 in the experiment with T-cell [3] (setting [8]) and 2.51 to 5 in the experiment with T-cell [4] (setting [10]). In addition, the figures for the fold induction at 4 µM in the experiment with T-cell [1] (setting [7]) and in the experiment on T-cell [4] (setting [11]) were 1.31 to 1.5 and 5 to 7.5, respectively. Moreover, the fold induction at 8 µM in the experiment with T-cell [2] (setting [8]) was 0.051 to 0.1; in the experiment with T-cell [3] (setting [8]), > 1. In addition, the IC50 at Cbl-b was ≤ 100 nM.
As for `C[C@H](Sc1nncn1C)c1cccc(NC(=O)c2ccc(CO)c(C3CC3)n2)c1` [Compound 89, 6-cyclopropyl-5-(hydroxymethyl)-N-[3-[(1S)-1-[(4-methyl-1,2,4-triazol-3-yl)sulfanyl]ethyl]phenyl]pyridine-2-carboxamide], the fold induction at 0.3 µM in the experiment with T-cell [1] (setting [5]) lay in the range of 1.01 to 1.3; in the experiment with T-cell [4] (setting [9]), 1.01 to 2.5. Besides, the fold induction at 1 µM is 1.01 to 1.3 in the experiment on T-cell [1] (setting [6]), < 0.05 in the experiment with T-cell [2] (setting [8]), < 0.6 with T-cell [3] (setting [8]) and 2.51 to 5 in the experiment on T-cell [4] (setting [10]). Also, the fold induction at 4 µM in the experiment with T-cell [1] (setting [7]) is 1.31 to 1.5; with T-cell [4] (setting [11]) it was 5 to 7.5. Moreover, the figures for the fold induction at 8 µM in the experiment with T-cell [2] (setting [8]) and in the experiment with T-cell [3] (setting [8]) were 0.101 to 0.15 and 0.801 to 1, respectively. Also, the IC50 at Cbl-b was ≤ 100 nM.
Regarding `C[C@H](c1cc2c(c(C(F)(F)F)c1)CN(c1cccc(C3(Cc4nncn4C)COC3)c1)C2=O)N1CCC(C)(F)CC1` [Example 553b, (R)-6-(1-(4-fluoro-4-methylpiperidin-1-yl)ethyl)-2-(3-(3-((4-methyl-4H-1,2,4-triazol-3-yl)methyl)oxetan-3-yl)phenyl)-4-(trifluoromethyl)isoindolin-1-one], the fold induction at 0.3 µM was > 1.76 in the experiment with T-cell [1] (0.3 μM compound, primary human total T-cells, baseline = anti-CD3/anti-CD28 stimulated cells without inhibitor, read-out: CD25 staining, Anti-CD3/Anti-CD28 stimulation, fold change over baseline) and > 7.5 with T-cell [4] (0.3 μM compound, primary human total T-cells, baseline = anti-CD3/anti-CD28 stimulated cells without inhibitor, read-out: IL-2 secretion, Anti-CD3/Anti-CD28 stimulation, fold change over baseline). The fold induction at 1 µM with T-cell [1] (1 μM compound, primary human total T-cells, baseline = anti-CD3/anti-CD28 stimulated cells without inhibitor, read-out: CD25 staining, Anti-CD3/Anti-CD28 stimulation, fold change over baseline) is > 1.76; in the experiment with T-cell [4] (1 μM compound, primary human total T-cells, baseline = anti-CD3/anti-CD28 stimulated cells without inhibitor, read-out: IL-2 secretion, Anti-CD3/Anti-CD28 stimulation, fold change over baseline), > 7.5. Besides, at Cbl-b, the IC50 was ≤ 100 nM.
